Assay results reported in patent US20140350273A1, “PEDIATRIC USES OF CABAZITAXEL” (AVENTIS PHARMA S.A., priority 2012, published 2014).
Read-outs that look alike come from different tables or passages of the source.

System: human Ewing's sarcoma SK-ES-1
Type: in vivo
Design: Tumor volume changes from baseline: Median (nMad): unit not given here
Method: This efficacy may be quantified, for example, as changes in tumor volume for each treated (T) and control (C) group, which are calculated for each animal and each day by subtracting the tumor volume on the day of first treatment (staging day) from the tumor volume on the specified observation day. This allows calculating the tumor growth inhibition: ΔT/ΔC=(median delta T/median delta C)×100. Individual tumor volume changes from baseline are thereafter analyzed by a non-parametric two-way ANOVA-TYPE (with factors: group and repeated days) followed by a post-hoc contrasts analysis, with Bonferroni-Holm adjustment for multiplicity, comparing all treated groups to the control group. […] A probability less than 5% (p<0.05) was considered as significant.
Based on the National Cancer Institute (NCl) standards, a ΔT/ΔC≦40% is the minimal level required to declare activity.
The tumor doubling time (in days; Td) was estimated from the plot of the log linear growth of the control group tumors in exponential growth (100 to 1000 mm^3 range) [T. H. Corbett et al., Cancer, 40: 2660-2680 (1977); F. M. Schabel et al., Cancer Drug Development, Part B, Methods in Cancer Research, 17: 3-51, New York, Academic Press Inc. (1979)].
This efficacy may also be quantified by the number of tumor regressions observed after therapy. Individual mice reporting a tumor volume ≦50% of the Day 0 measurement for two consecutive measurements over a seven day period were considered partial responders (PR). Individual mice lacking palpable tumors (<4×4 mm^2 for two consecutive measurements over a seven day period) were classified as complete responders (CR); a CR that persisted until study completion was considered a tumor-free survivor (TFS).
The efficacy of cabazitaxel in comparison with docetaxel on pediatric solid tumors was determined experimentally in the following manner:
The animals subjected to the experiment are subcutaneously grafted unilaterally with approximately 30 mg of a tumor fragment on day 0. The animals are implanted with a human tumor xenografted in immunocompromized mice. Several days post tumor implantation, mice are randomized according to their body weight to the different groups of treatments and controls. The animals are observed every day. The different animal groups are weighed daily during treatment until the maximum weight loss is reached and subsequent full weight recovery has occurred. The groups are then weighed once or twice a week until the end of the trial.
The tumors are measured 1 to 5 times a week, depending on the tumor doubling time, until the tumor reaches approximately 1,000 mm^3, or until the animal dies (if this occurs before the tumor reaches 1,000 mm^3). The animals are necropsied immediately after euthanasia or death.
The selected tumor model was a human Ewing's sarcoma SK-ES-1, xenografted in SCID mice [Fogh J. New York: Plenum Press, 1975].
Cabazitaxel and docetaxel were weighed for each treatment and dissolved in ethanol. Treatment solutions were prepared first by mixing 1 volume of ethanolic stock solution and 1 volume of polysorbate 80, then by adding 18 volumes of glucose 5% in water.
The Td in days was estimated from the plot of the log linear growth of the control group tumors in exponential growth (100 to 1,000 mm^3 range) and the number of tumor regressions observed after therapy.
The following end points have been used: • Toxicity was declared at dosages inducing ≧20% body weight loss or ≧10% drug death; • Relative tumor growth inhibition was determined on day 22 post tumor implantation when the median tumor size in the control group was 456 mm^3; • Antitumor efficacy was determined by calculating the ΔT/ΔC value in percent, according to the above-mentioned formula; • Tumor regressions (as explained above); • Statistical analysis performed (as explained above).

[1] = 3.5 mg/kg per injection (total 7.0) IV days 15; 19
[2] = 5.6 mg/kg per injection (total 11.2) IV days 15; 19
[3] = 5.6 mg/kg per injection (total 11.2) IV days 15; 19; listed as CABAZITAXEL
[4] = 9.0 mg/kg per injection (total 18) IV days 15; 19
[5] = 9.0 mg/kg per injection (total 18) IV days 15; 19; listed as CABAZITAXEL
[6] = 14.5 mg/kg per injection (total 29) IV days 15; 19
[7] = 14.5 mg/kg per injection (total 29) IV days 15; 19; listed as CABAZITAXEL

SMILES: CO[C@H]1C(=O)[C@]2(C)[C@@H](OC)C[C@H]3OC[C@@]3(OC(C)=O)[C@H]2[C@H](OC(=O)c2ccccc2)[C@]2(O)C[C@H](OC(=O)[C@H](O)[C@@H](NC(=O)OC(C)(C)C)c3ccccc3)C(C)=C1C2(C)C [Cabazitaxel, 4α-acetoxy-2α-benzoyloxy-5β,20-epoxy-1β-hydroxy-7β,10β-dimethoxy-9-oxo-11-taxen-13α-yl (2R,3S)-3-tert-butoxycarbonyl-amino-2-hydroxy-3-phenylpropionate]
- Average body weight change in % per mouse at nadir [1]: −4.4%
- Biological interpretation [1]: active
- Drug death [1]: 0/7
- Regressions Complete [1]: 0/7
- Regressions Partial [1]: 0/7
- Tumor free survivors at day 120 [1]: 0/7
- day of nadir [1]: 16 days
- ΔT/ΔC in % (day 22) [1]: 22%
- Biological interpretation (3.5 mg/kg per injection (total 7.0) IV days 15; 19; listed as CABAZITAXEL): Active
- Tumor volume changes from baseline: Median (nMad) (3.5 mg/kg, day 19): 32
- Tumor volume changes from baseline: Median (nMad) (3.5 mg/kg, day 22): 41
- Tumor volume changes from baseline: Median (nMad) (3.5 mg/kg, day 25): 180
- Tumor volume changes from baseline: Median (nMad) (3.5 mg/kg, day 28): 499
- Tumor volume changes from baseline: Median (nMad) (3.5 mg/kg; day 19): 32 (207.6)
- Tumor volume changes from baseline: Median (nMad) (3.5 mg/kg; day 22): 41 (108.2)
- Tumor volume changes from baseline: Median (nMad) (3.5 mg/kg; day 25): 180 (100.8)
- Tumor volume changes from baseline: Median (nMad) (3.5 mg/kg; day 28): 499 (324.7)
- Average body weight change in % per mouse at nadir [2]: −4.2%
- Biological interpretation [2]: highly active
- Drug death [2]: 0/7
- Regressions Complete [2]: 0/7
- Regressions Partial [2]: 7/7
- Tumor free survivors at day 120 [2]: 0/7
- day of nadir [2]: 16 days
- Biological interpretation [3]: Highly Active
- ΔT/ΔC in % (day 22) [3]: <0%
- PR (5.6 mg/kg per injection IV days 15; 19): 100%
- Tumor volume changes from baseline: Median (nMad) (5.6 mg/kg, day 19): −31
- Tumor volume changes from baseline: Median (nMad) (5.6 mg/kg, day 22): −126
- Tumor volume changes from baseline: Median (nMad) (5.6 mg/kg, day 25): −157
- Tumor volume changes from baseline: Median (nMad) (5.6 mg/kg, day 28): −157
- Tumor volume changes from baseline: Median (nMad) (5.6 mg/kg; day 19): −31 (87.5)
- Tumor volume changes from baseline: Median (nMad) (5.6 mg/kg; day 22): −126 (86)
- Tumor volume changes from baseline: Median (nMad) (5.6 mg/kg; day 25): −157 (81.5)
- Tumor volume changes from baseline: Median (nMad) (5.6 mg/kg; day 28): −157 (81.5)
- Tumor volume changes from baseline: Median (nMad) (5.6 mg/kg; day 32): −128 (112.7)
- Tumor volume changes from baseline: Median (nMad) (5.6 mg/kg; day 35): −157 (112.7)
- Average body weight change in % per mouse at nadir [4]: −6.3%
- Biological interpretation [4]: highly active
- Drug death [4]: 0/7
- Regressions Complete [4]: 0/7
- Regressions Partial [4]: 7/7
- Tumor free survivors at day 120 [4]: 0/7
- day of nadir [4]: 16 days
- Biological interpretation [5]: Highly Active
- ΔT/ΔC in % (day 22) [5]: <0%
- PR (9 mg/kg per injection IV days 15; 19): 100%
- Tumor volume changes from baseline: Median (nMad) (9 mg/kg, day 19): 25
- Tumor volume changes from baseline: Median (nMad) (9 mg/kg, day 22): −137
- Tumor volume changes from baseline: Median (nMad) (9 mg/kg, day 25): −227
- Tumor volume changes from baseline: Median (nMad) (9 mg/kg, day 28): −227
- Tumor volume changes from baseline: Median (nMad) (9 mg/kg; day 19): 25 (37.1)
- Tumor volume changes from baseline: Median (nMad) (9 mg/kg; day 22): −137 (60.8)
- Tumor volume changes from baseline: Median (nMad) (9 mg/kg; day 25): −227 (100.8)
- Tumor volume changes from baseline: Median (nMad) (9 mg/kg; day 28): −227 (100.8)
- Tumor volume changes from baseline: Median (nMad) (9 mg/kg; day 32): −231 (78.6)
- Tumor volume changes from baseline: Median (nMad) (9 mg/kg; day 35): −231 (78.6)
- Average body weight change in % per mouse at nadir [6]: −7.1%
- Biological interpretation [6]: highly active
- Drug death [6]: 0/7
- Regressions Complete [6]: 6/7
- Regressions Partial [6]: 7/7
- Tumor free survivors at day 120 [6]: 3/7
- day of nadir [6]: 20 days
- Biological interpretation [7]: Highly Active
- ΔT/ΔC in % (day 22) [7]: <0%
- Tumor volume changes from baseline: Median (nMad) (14.5 mg/kg, day 19): −108
- Tumor volume changes from baseline: Median (nMad) (14.5 mg/kg, day 22): −203
- Tumor volume changes from baseline: Median (nMad) (14.5 mg/kg, day 25): −221
- Tumor volume changes from baseline: Median (nMad) (14.5 mg/kg, day 28): −221
- Tumor volume changes from baseline: Median (nMad) (14.5 mg/kg; day 19): −108 (91.9)
- Tumor volume changes from baseline: Median (nMad) (14.5 mg/kg; day 22): −203 (87.5)
- Tumor volume changes from baseline: Median (nMad) (14.5 mg/kg; day 25): −221 (81.5)
- Tumor volume changes from baseline: Median (nMad) (14.5 mg/kg; day 28): −221 (81.5)
- Tumor volume changes from baseline: Median (nMad) (14.5 mg/kg; day 32): −221 (87.5)
- Tumor volume changes from baseline: Median (nMad) (14.5 mg/kg; day 35): −221 (87.5)
- Tumor volume changes from baseline: Median (nMad) (14.5 mg/kg; day 39): −221 (108.2)
- Tumor volume changes from baseline: Median (nMad) (14.5 mg/kg; day 41): −221 (140.8)
- Tumor volume changes from baseline: Median (nMad) (14.5 mg/kg; day 43): −221 (140.8)
- Tumor volume changes from baseline: Median (nMad) (14.5 mg/kg; day 45): −144 (222.4)
- antitumor activity compared with docetaxel (conclusion of example 3): more also active than docetaxel
